Like-named read-outs stand apart in the source and are kept apart here.
Experiments:
[1] = test system: TLR7 induced IL-6 secretion in human mononuclear cells (PBMC's); assay: TLR7 induced IL-6 in human PBMC's; type: cell-based; conditions: TLR7 specific ligand 2 uM overnight, IL-6 AlphaLISA
Method: TLR7 Induced IL-6 in Human PBMC's
Human PBMC assay is used as one of the functional assay to monitor the activity of IRAK1 and IRAK4 small molecule inhibitors on TLR7 induced IL-6 secretion in human mononuclear cells (PBMC's). Human PBMCs are prepared from buffy coats (whole blood enriched with leukocytes and platelets) obtained from healthy volunteers used either fresh or frozen are plated in assay media (RPMI+2% P/S/L-glu+10% HI-FBS) and pre-treated with compounds in DMSO/media (range of concentrations from 25 μM to 0.4 nM) or controls (0.25% DMSO) for 30 minutes at 37° C. in assay media. Following pre-treatment with IRAK1 and IRAK4 inhibitors, PBMC's are stimulated with TLR7 specific ligand (2 uM) overnight (16-18 hrs) at 37° C. After incubation supernatant is transferred to 384 well PE AlphaPlate-384 (6005350) and IL-6 is quantified using Perkin Elmer IL-6 Alpha LISA kit (AL223C). Plates are read on an Envision® plate reader with Alpha Technology®.

[2] = target: IRAK4 (Homo sapiens (Human), UniProt Q9NWZ3); assay: IRAK4 enzymatic assay; type: biochemical; conditions: His-TEV-IRAK4, ATP 2 μM, STK1-biotin peptide 300 nM, 3 hours at 30° C.
Chain of IRAK4 (Q9NWZ3 whole entry): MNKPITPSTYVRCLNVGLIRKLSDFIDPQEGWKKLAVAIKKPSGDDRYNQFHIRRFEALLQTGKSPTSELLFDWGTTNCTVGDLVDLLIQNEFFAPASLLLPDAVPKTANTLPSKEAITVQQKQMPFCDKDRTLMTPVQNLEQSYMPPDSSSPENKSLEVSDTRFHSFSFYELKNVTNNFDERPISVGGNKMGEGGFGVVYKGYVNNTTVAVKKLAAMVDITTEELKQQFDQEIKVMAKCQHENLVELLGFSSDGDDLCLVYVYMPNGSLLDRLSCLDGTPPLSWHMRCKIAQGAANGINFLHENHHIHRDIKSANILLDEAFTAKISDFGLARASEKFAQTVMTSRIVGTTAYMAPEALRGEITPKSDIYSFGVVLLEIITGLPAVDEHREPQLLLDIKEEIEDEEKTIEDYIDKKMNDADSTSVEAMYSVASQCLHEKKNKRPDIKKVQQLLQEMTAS
Method: IRAK4 is a human purified recombinant enzyme (His-TEV-IRAK1 (194-712) IRAK4 hydrolyses ATP, autophosphorylates and phosphorylates a Serine/Threonine generic peptidic substrate (STK: 61ST1BLC from CisBio International based in Bagnols/Cèze FR).
Measurement of IRAK-4 inhibition is performed in streptavidin coated 384 well FlashPlate (PerkinElmer #SMP410A). His-TEV-IRAK4 (20 ng/well), ATP (2 μM, [^33P]ATP 0.25 μCi/well), STK1-biotin peptide (300 nM) and compounds in DMSO (range of concentrations from 20 μM to 1 nM) or controls (2% DMSO) are incubated for 3 hours at 30° C. in assay buffer: Hepes pH 7.0 50 mM, Fatty acid-free BSA 0.1%, Dithiothreitol DTT 2 mM, MgCl2 10 mM, EGTA 0.5 mM, Tween-20 0.01%, MnCl2 5 mM.
Kinase reaction is stopped by addition of EDTA. Supernatant is discarded, plates are washed three times with 150 mM NaCl and radioactivity is then measured in a Microbeta Trilux reader.

[3] = target: IRAK1 (Homo sapiens (Human), UniProt P51617); assay: IRAK1 enzymatic assay; type: biochemical; conditions: His-TEV-IRAK-1, ATP 1 μM, 3 hours at 30° C.
Chain of IRAK1 (P51617 194-712): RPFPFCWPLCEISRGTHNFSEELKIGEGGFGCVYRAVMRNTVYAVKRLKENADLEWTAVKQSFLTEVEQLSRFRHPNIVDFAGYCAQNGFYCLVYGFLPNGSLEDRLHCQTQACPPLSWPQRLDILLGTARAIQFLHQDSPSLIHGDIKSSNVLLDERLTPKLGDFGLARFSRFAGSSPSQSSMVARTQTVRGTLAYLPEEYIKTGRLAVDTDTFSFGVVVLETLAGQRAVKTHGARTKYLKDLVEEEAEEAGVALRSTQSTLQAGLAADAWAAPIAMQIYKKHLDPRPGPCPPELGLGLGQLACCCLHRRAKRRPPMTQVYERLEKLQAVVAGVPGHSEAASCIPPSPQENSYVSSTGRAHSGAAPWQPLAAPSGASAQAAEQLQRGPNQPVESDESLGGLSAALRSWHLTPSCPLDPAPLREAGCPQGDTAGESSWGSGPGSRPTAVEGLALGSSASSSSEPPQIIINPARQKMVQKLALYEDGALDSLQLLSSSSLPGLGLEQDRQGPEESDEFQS
Method: IRAK1 is a human purified recombinant enzyme (His-TEV-IRAK1 (194-712)) In this assay, IRAK-1 hydrolyses ATP and autophosphorylates.
Measurement of IRAK-1 inhibition is performed in streptavidin coated 384 well FlashPlate (PerkinElmer #SMP410A).
His-TEV-IRAK-1 (15 ng/well), ATP (1 μM, [^33P]ATP 0.25 μCi/well) and compounds in DMSO (range of concentrations from 20 μM to 1 nM) or controls (2% DMSO) are incubated for 3 hours at 30° C. in assay buffer: Hepes pH 7.0 50 mM, Fatty acid-free BSA 0.1%, Dithiothreitol DTT 2 mM, MgCl2 10 mM, EGTA 0.5 mM, Triton-X-100 0.01%. Kinase reaction is stopped by addition of EDTA. Supernatant is discarded, plates are washed three times with 150 mM NaCl and radioactivity is then measured in a Microbeta Trilux reader.

[4] = amide bond, DMF, 25.0 °C
[5] = amide bond, DMF, 25.0 °C; remark: listed apart in the source

| SMILES | IC50 [1] [µM] | IC50 [2] [µM] | IC50 [3] [µM] | ring closure, yield of all isomers ([4]; from Nc1nc2ccccc2n1Cc1cccc(-c2ccc(=O)n(Cc3cccc(C(=O)O)c3)n2)c1, HBTU/HOBt/N-methylmorpholine, 10.0 mM, 15.0 h) [%] | ring closure, isolated yield ([5]; from Nc1nc2ccccc2n1Cc1cccc(-c2ccc(=O)n(Cc3cccc(C(=O)[O-])c3)n2)c1, 15-membered ring, HBTU/HOBt/NMM, 10.0 mM) [%] | ring closure, isolated yield ([5]; from Nc1nc2ccccc2n1CC(O)C1CCCN(c2ccc(=O)n(Cc3cccc(C(=O)[O-])c3)n2)C1, 16-membered ring, HATU/HOAt/DMAP/DIEA, 1.27 mM) [%] | ring closure, yield of all isomers ([4]; from Nc1nc2ccccc2n1CC(O)CCOc1ccc(=O)n(Cc2cccc(C(=O)O)c2)n1, HATU/HOAt/DMAP/DIPEA, 2.44 mM, 14.0 h) [%] | ring closure, isolated yield ([5]; from potassium 3-{3-[4-(2-Amino-benzoimidazol-1-yl)-3-hydroxy-butoxy]-6-oxo-6H-pyridazin-1-ylmethyl}-benzoic acetate, 16-membered ring, HATU/HOAt/DMAP/DIEA, 2.4 mM) [%] |
| --- | --- | --- | --- | --- | --- | --- | --- | --- |
| O=C1Nc2nc3ccccc3n2Cc2cccc(c2)-c2ccc(=O)n(n2)Cc2cccc1c2 [Compound 1, 8,15,17,25,29-pentaazahexacyclo[23.3.1.1^2,61^19,230^8,160^9,14]hentriaconta-1(29),2(31),3,5,9(14),10,12,15,19(30),20,22,27-dodecaene-18,26-dione] | 0.1 to 1 | < 0.1 | < 0.1 | 26 | 26 | – | – | – |
| COc1cc2nc3n(c2cc1OC)Cc1cccc(c1)-c1ccc(=O)n(n1)Cc1cccc(c1)C(=O)N3 [Compound 5, 11,12-dimethoxy-8,15,17,25,29-pentaazahexacyclo[23.3.1.1^2,61^19,23.0^8,16.0^9,14]hentriaconta-1(29),2(31),3,5,9(14),10,12,15,19(30),20,22,27-dodecaene-18,26-dione] | < 0.1 | < 0.1 | < 0.1 | – | – | – | – | – |
| O=C1Nc2nc3ccccc3n2Cc2cc(ccn2)-c2ccc(=O)n(n2)Cc2cccc1c2 [Compound 16] | < 0.1 | < 0.1 | < 0.1 | – | – | – | – | – |
| O=C1Nc2nc3ccccc3n2CC(O)c2cccc(c2)-c2ccc(=O)n(n2)Cc2cccc1c2 (centres unmarked) [Compound 17] | < 0.1 | < 0.1 | < 0.1 | – | – | – | – | – |
| O=C1Nc2nc3ccccc3n2Cc2ccc(O)c(c2)-c2ccc(=O)n(n2)Cc2cccc1c2 [Compound 12, 3-hydroxy-8,15,17,25,29-pentaazahexacyclo[23.3.1.1^2,6.1^19,23.0^8,16.0^9,14]hentriaconta-1(29),2(31),3,5,9(14),10,12,15,19(30),20,22,27-dodecaene-18,26-dione] | 1 to 5 | < 0.1 | < 0.1 | – | – | – | – | – |
| O=C1Nc2nc3ccccc3n2CCc2cccc(c2)-c2ccc(=O)n(n2)Cc2cccc1c2 [Compound 2, 6,14,16,23,32-pentaazahexacyclo[24.3.1.1^2,6.1^8,12.0^15,23.0^17,22]dotriaconta-1(30),2(32),3,8,10,12(31),15,17(22),18,20,26,28-dodecaene-5,13-dione] | 0.1 to 1 | < 0.1 | < 0.1 | – | – | – | – | – |
| O=C(O)c1ccc2c(c1)nc1n2Cc2cccc(c2)-c2ccc(=O)n(n2)Cc2cccc(c2)C(=O)N1 [Compound 21] | 0.1 to 1 | < 0.1 | < 0.1 | – | – | – | – | – |
| O=C1Nc2nc3ccccc3n2CC(O)C2CCCN(C2)c2ccc(=O)n(n2)Cc2cccc1c2 (centres unmarked) | – | – | – | – | – | 16 | – | – |
| O=C1Nc2nc3ccccc3n2C[C@H](O)[C@@H]2CCCN(C2)c2ccc(=O)n(n2)Cc2cccc1c2 (stereo in doubt) [Compound 32a, 25-hydroxy-1,6,14,16,23,32-hexaazahexacyclo[24.3.1.1^2,6.1^8,12.0^15,23.0^17,22]dotriaconta-2(32),3,8(31),9,11,15,17(22),18,20-nonaene-5,13-dione] | 0.1 to 1 | < 0.1 | < 0.1 | – | – | – | – | – |
| CC(=O)NCCc1ccc2c(c1)nc1n2Cc2cccc(c2)-c2ccc(=O)n(n2)Cc2cccc(c2)C(=O)N1 [Compound 25] | < 0.1 | < 0.1 | < 0.1 | – | – | – | – | – |
| O=C1Nc2nc3ccccc3n2CC(O)CCOc2ccc(=O)n(n2)Cc2cccc1c2 (centres unmarked) [Compound 18, 20-hydroxy-23-oxa-1,9,11,18,28-pentaazapentacyclo[22.3.1.1^3,7.0^10,18.0^12,17]nonacosa-3,5,7(29),10,12(17),13,15,24(28),25-nonaene-8,27-dione] | 0.1 to 1 | < 0.1 | < 0.1 | – | – | – | 7 | 7 |
| O=C1Nc2nc3ccccc3n2Cc2cc(ccc2O)-c2ccc(=O)n(n2)Cc2cccc1c2 [Compound 20, 5-hydroxy-8,15,17,25,29-pentaazahexacyclo[23.3.1.1^2,6.1^19,23.08,16.0^9,14]hentriaconta-1(29),2(31),3,5,9(14),10,12,15,19(30),20,22,27-dodecaene-18,26-dione] | < 0.1 | < 0.1 | < 0.1 | – | – | – | – | – |

Reference: patent publication US10064861B2, “Macrocyclic pyridazinone derivatives” (Merck Patent GmbH, priority 2013, dated 2018)
